Read-outs that look alike come from different tables or passages of the source.
Experiments:
[1] = Organic solvent properties used in the CFD model (Table 2); assay type: physicochemical; details: for Density / Dynamic viscosity: organic solvent; for Interfacial Tension: organic solvent / water
Text: Principal component analysis (PCA) was used to identify the number of features required to capture the system's behavior. Considering material properties and dimensionless groups of both phases gave a total of 26 features (See Table 1 and definitions in the Supplemental Information (SI) herein below). The dimensionless groups were based on previous work. See, e.g., Chen, supra; Zhao, Y.; Chen, G.; Yuan, Q. “Liquid-liquid two-phase flow patterns in a rectangular microchannel.” AIChE Journal 2006, 52 (12), 4052-4060; Yagodnitsyna, A. A.; Kovalev, A. V.; Bilsky, A. V. “Flow patterns of immiscible liquid-liquid flow in a rectangular microchannel with T-junction.” Chemical Engineering Journal 2016, 303, 547-554; Zhao, C. X.; Middelberg, A. P. J. “Two-phase microfluidic flows.” Chemical Engineering Science 2011, 66 (7), 1394-1411. Apart from PCA, feature importance can rank features for classifying flowpatterns. A clustered covariance matrix may be employed to group dependent variables. We implemented these algorithms using the sklearn library in Python.
FIG. 11a, b, d and FIG. 11c maps the conditions for our experimental and computational flow patterns, respectively. As the diameter increases, different flow conditions (total volumetric flow rate, org/aq (v/v) ratio, various organic solvents) lead to varying patterns. […] For larger diameters, the parallel flow becomes prominent (FIG. 11c). […] At lower experimental flow rates (0.1-10 ml/min), no irregular flow is observed.

[2] = per Chen et al., cited from earlier work; for Diffusivity: HMF in the organic solvent; for Partition Coefficient: HMF, organic solvent/water
[3] = experimentally shown, Wang et al., cited from earlier work

Density [1] [kg m^−3] | Dynamic viscosity [1] | Interfacial Tension [1] [N m^−1] | Compound | Diffusivity [2] | Partition Coefficient [2] | KHMF (HMF partition coefficient) ([3]; 25° C.) | KHMF (HMF partition coefficient) ([3]; 150° C.)
812 | 3.47 × 10^−3 Pa · s | 0.0034 | CCCC(C)O (centres unmarked) [2-pentanol] | 3.81 × 10^−10 m^2/s | 1.3 ± 0.07 |  | 
684 | 5.85 × 10^−4 Pa · s | 0.0157 | CC(=O)CC(C)C [MIBK, methyl isobutyl ketone] | 2.43 × 10^−9 m^2/s | 1.1 ± 0.03 |  | 
 |  |  | Cc1cccc(O)c1 [m-cresol] |  |  | 20.6 | 4.2
900 | 4.41 × 10^−4 Pa · s | 0.0074 | CCOC(C)=O [EtAc, ethyl acetate] | 2.87 × 10^−9 m^2/s | 1.4 ± 0.05 |  | 
